Test results from patent publication US8722578B2, “Spiroheterocyclic pyrrolidinedione herbicidal compositions” (Syngenta Participations AG, priority 2008, dated 2014).

Legend:
[1] = system: Digitaria sanguinalis (DIGSA); experiment: Example A post-emergence herbicidal activity, glasshouse pot test; format: in vivo; conditions: 360 h, rate 125 g/ha, evaluated 15 days after spraying, read-out: DIGSA post-emergence activity (100=total damage to plant; 0=no damage to plant)
Description: (§1) Monocotyledonous and dicotyledonous test plants are sown in standard soil in pots. After cultivation for one day (pre-emergence) or after 10 days cultivation (post-emergence) under controlled conditions in a glasshouse, the plants are sprayed with an aqueous spray solution derived from the formulation of the technical active ingredient in 0.6 ml acetone and 45 ml formulation solution containing 10.6% Emulsogen EL (Registry number 61791-12-6), 42.2% N-methylpyrrolidone, 42.2% dipropylene glycol monomethyl ether (Registry number 34590-94-8) and 0.2% X-77 (Registry number 11097-66-8). The test plants are then grown in a greenhouse under optimum conditions until, 15 days later for post-emergence and 20 days for pre-emergence, the test is evaluated (100=total damage to plant; 0=no damage to plant). Test Plants: Alopecurus myosuroides (ALOMY), Avena fatua (AVEFA), Lolium perenne (LOLPE), Setaria faberi (SETFA), Digitaria sanguinalis (DIGSA), Echinochloa crus-galli (ECHCG) Post-Emergence Activity

[2] = system: Alopecurus myosuroides (ALOMY); experiment: as above; format: in vivo; conditions: 360 h, rate 125 g/ha, evaluated 15 days after spraying, read-out: ALOMY post-emergence activity (100=total damage to plant; 0=no damage to plant)
Description: as §1

Setaria faberi (SETFA) [3] = experiment: as above; format: in vivo; conditions: 360 h, rate 125 g/ha, evaluated 15 days after spraying, read-out: SETFA post-emergence activity (100=total damage to plant; 0=no damage to plant)
Description: as §1

Avena fatua (AVEFA) [4] = experiment: as above; format: in vivo; conditions: 360 h, rate 125 g/ha, evaluated 15 days after spraying, read-out: AVEFA post-emergence activity (100=total damage to plant; 0=no damage to plant)
Description: as §1

Lolium perenne (LOLPE) [5] = experiment: as above; format: in vivo; conditions: 360 h, rate 125 g/ha, evaluated 15 days after spraying, read-out: LOLPE post-emergence activity (100=total damage to plant; 0=no damage to plant)
Description: as §1

[6] = system: Echinochloa crus-galli (ECHCG); experiment: as above; format: in vivo; conditions: 360 h, rate 125 g/ha, evaluated 15 days after spraying, read-out: ECHOG post-emergence activity (100=total damage to plant; 0=no damage to plant)
Description: as §1

[7] = system: Alopecurus myosuroides (ALOMY); experiment: Example B post-emergence herbicidal activity, glasshouse pot test; format: in vivo; conditions: 312 h, evaluated after 13 days, read-out: ALOMY post-emergence activity (100=total damage to plant; 0=no damage to plant); for pest or weed control at 250 g/ha: rate 250 g/ha
How it was run: (§2)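 Damage is rated visually 13 days after spraying on a 0 (no damage) to 100 (total damage) scale. The aqueous spray is derived from an acetone/water (50:50) formulation with 0.5% Tween 20 and is applied one day after sowing for pre-emergence or after 8 days of cultivation for post-emergence.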

Setaria faberi (SETFA) [8] = experiment: as above; format: in vivo; conditions: 312 h, evaluated after 13 days, read-out: SETFA post-emergence activity (100=total damage to plant; 0=no damage to plant); for pest or weed control at 250 g/ha: rate 250 g/ha
How it was run: as §2

Avena fatua (AVEFA) [9] = experiment: as above; format: in vivo; conditions: 312 h, evaluated after 13 days, read-out: AVEFA post-emergence activity (100=total damage to plant; 0=no damage to plant); for pest or weed control at 250 g/ha: rate 250 g/ha
How it was run: as §2

[10] = system: Echinochloa crus-galli (ECHCG); experiment: as above; format: in vivo; conditions: 312 h, evaluated after 13 days, read-out: ECHCG post-emergence activity (100=total damage to plant; 0=no damage to plant); for pest or weed control at 250 g/ha: rate 250 g/ha
How it was run: as §2

[11] = system: Alopecurus myosuroides (ALOMY); experiment: Example B pre-emergence herbicidal activity, glasshouse pot test; format: in vivo; conditions: 312 h, first table (headed Post-Emergence, taken as pre-emergence), evaluated after 13 days, read-out: ALOMY activity (100=total damage to plant; 0=no damage to plant); for pest or weed control at 250 g/ha: rate 250 g/ha
Description: (§3) Seeds of a variety of test species are sown in standard soil in pots. After cultivation for one day (pre-emergence) or after 8 days cultivation (post-emergence) under controlled conditions in a glasshouse (at 24/16° C., day/night; 14 hours light; 65% humidity), the plants are sprayed with an aqueous spray solution derived from the formulation of the technical active ingredient in acetone/water (50:50) solution containing 0.5% Tween 20 (polyoxyethelyene sorbitan monolaurate, CAS RN 9005-64-5). The test plants are then grown in a glasshouse under controlled conditions in a glasshouse (at 24/16° C., day/night; 14 hours light; 65% humidity) and watered twice daily. After 13 days for pre and post-emergence, the test is evaluated (100=total damage to plant; 0=no damage to plant). Test Plants: Setaria faberi (SETFA), Alopecurus myosuroides (ALOMY), Echinochloa crus-galli (ECHCG), Avena fatua (AVEFA)

Setaria faberi (SETFA) [12] = experiment: as above; format: in vivo; conditions: 312 h, first table (headed Post-Emergence, taken as pre-emergence), evaluated after 13 days, read-out: SETFA activity (100=total damage to plant; 0=no damage to plant); for pest or weed control at 250 g/ha: rate 250 g/ha
Description: as §3

Avena fatua (AVEFA) [13] = experiment: as above; format: in vivo; conditions: 312 h, first table (headed Post-Emergence, taken as pre-emergence), evaluated after 13 days, read-out: AVEFA activity (100=total damage to plant; 0=no damage to plant); for pest or weed control at 250 g/ha: rate 250 g/ha
Description: as §3

[14] = system: Echinochloa crus-galli (ECHCG); experiment: as above; format: in vivo; conditions: 312 h, first table (headed Post-Emergence, taken as pre-emergence), evaluated after 13 days, read-out: ECHCG activity (100=total damage to plant; 0=no damage to plant); for pest or weed control at 250 g/ha: rate 250 g/ha
Description: as §3

[15] = system: Digitaria sanguinalis (DIGSA); experiment: Example A pre-emergence herbicidal activity, glasshouse pot test; format: in vivo; conditions: 480 h, rate 250 g/ha, evaluated 20 days after spraying, read-out: DIGSA pre-emergence activity (100=total damage to plant; 0=no damage to plant)
Description: as §1, with “Pre-Emergence” for “Post-Emergence”

[16] = system: Alopecurus myosuroides (ALOMY); experiment: as above; format: in vivo; conditions: 480 h, rate 250 g/ha, evaluated 20 days after spraying, read-out: ALOMY pre-emergence activity (100=total damage to plant; 0=no damage to plant)
Description: as §1, with “Pre-Emergence” for “Post-Emergence”

Setaria faberi (SETFA) [17] = experiment: as above; format: in vivo; conditions: 480 h, rate 250 g/ha, evaluated 20 days after spraying, read-out: SETFA pre-emergence activity (100=total damage to plant; 0=no damage to plant)
Description: as §1, with “Pre-Emergence” for “Post-Emergence”

Avena fatua (AVEFA) [18] = experiment: as above; format: in vivo; conditions: 480 h, rate 250 g/ha, evaluated 20 days after spraying, read-out: AVEFA pre-emergence activity (100=total damage to plant; 0=no damage to plant)
Description: as §1, with “Pre-Emergence” for “Post-Emergence”

Lolium perenne (LOLPE) [19] = experiment: as above; format: in vivo; conditions: 480 h, rate 250 g/ha, evaluated 20 days after spraying, read-out: LOLPE pre-emergence activity (100=total damage to plant; 0=no damage to plant)
Description: as §1, with “Pre-Emergence” for “Post-Emergence”

[20] = system: Echinochloa crus-galli (ECHCG); experiment: as above; format: in vivo; conditions: 480 h, rate 250 g/ha, evaluated 20 days after spraying, read-out: ECHOG pre-emergence activity (100=total damage to plant; 0=no damage to plant)
Description: as §1, with “Pre-Emergence” for “Post-Emergence”

Compound | melting point [°C] | pest or weed control at 125 g/ha [1] [%] | pest or weed control at 125 g/ha [2] [%] | pest or weed control at 125 g/ha (Setaria faberi (SETFA) [3]) [%] | pest or weed control at 125 g/ha (Avena fatua (AVEFA) [4]) [%] | pest or weed control at 125 g/ha (Lolium perenne (LOLPE) [5]) [%] | pest or weed control at 125 g/ha [6] [%] | pest or weed control at 250 g/ha [15] [%] | pest or weed control at 250 g/ha [16] [%] | pest or weed control at 250 g/ha (Setaria faberi (SETFA) [17]) [%] | pest or weed control at 250 g/ha (Avena fatua (AVEFA) [18]) [%] | pest or weed control at 250 g/ha (Lolium perenne (LOLPE) [19]) [%] | pest or weed control at 250 g/ha [20] [%] | pest or weed control at 250 g/ha [7] [%] | pest or weed control at 250 g/ha (Setaria faberi (SETFA) [8]) [%] | pest or weed control at 250 g/ha (Avena fatua (AVEFA) [9]) [%] | pest or weed control at 250 g/ha [10] [%] | pest or weed control at 250 g/ha [11] [%] | pest or weed control at 250 g/ha (Setaria faberi (SETFA) [12]) [%] | pest or weed control at 250 g/ha (Avena fatua (AVEFA) [13]) [%] | further results
CCOC(=O)OC1=C(c2ccc(Cl)cc2Cl)C(=O)NC12CCN(OC)CC2 [Compound P16] | 187 to 189 | 50 | 70 | 50 | 30 | 20 | 50 | 0 | 30 | 10 | 30 | 50 | 20 | – | – | – | – | – | – | – | pest or weed control at 1000 g/ha ([7]; rate 1000 g/ha): 100%; pest or weed control at 1000 g/ha (Setaria faberi (SETFA) [8]; rate 1000 g/ha): 100%; pest or weed control at 1000 g/ha (Avena fatua (AVEFA) [9]; rate 1000 g/ha): 80%; pest or weed control at 1000 g/ha ([10]; rate 1000 g/ha): 100%; pest or weed control at 1000 g/ha ([11]; rate 1000 g/ha): 70%; pest or weed control at 1000 g/ha (Setaria faberi (SETFA) [12]; rate 1000 g/ha): 90%; pest or weed control at 1000 g/ha (Avena fatua (AVEFA) [13]; rate 1000 g/ha): 50%; pest or weed control at 1000 g/ha ([14]; rate 1000 g/ha): 40%
CCOC(=O)OC1=C(c2c(C)cc(-c3ccc(Cl)cc3)cc2C)C(=O)NC12CCN(OC)CC2 [Compound P70] | 217 to 219 | 100 | 0 | 90 | 10 | 0 | 100 | 100 | 70 | 100 | 70 | 30 | 100 | 100 | 100 | 100 | 100 | 90 | 100 | 90 | pest or weed control at 250 g/ha [14]: 100%
CON1CCC2(CC1)NC(=O)C(c1ccc(Br)cc1Cl)=C2OC(=O)C(C)(C)C [Compound P67] | 223 to 225 | 80 | 40 | 70 | 60 | 40 | 70 | 20 | 0 | 50 | 40 | 10 | 60 | 100 | 90 | 60 | 100 | 80 | 100 | 60 | pest or weed control at 250 g/ha [14]: 70%
CON1CCC2(CC1)NC(=O)C(c1c(C)cc(-c3ccc(Cl)cc3)cc1C)C2=O (stereo not drawn) [Compound T23] | 255 to 257 | 100 | 100 | 100 | 100 | 80 | 100 | 100 | 40 | 100 | 50 | 40 | 100 | 100 | 100 | 100 | 100 | 70 | 100 | 90 | pest or weed control at 250 g/ha [14]: 90%
